Assay results reported in patent US20240279214A1, “ALPHA4 BETA7 INEGRIN ANTAGONISTS AND USES THEREOF” (XinThera, Inc., priority 2022, published 2024).

Each compound was assayed against T1, a4b7 integrin interaction with MadCAM-1 (Homo sapiens, UniProt P13612+P26010) (assay: a4b7 Cell Capture Assay (RPMI8866 cells on MAdCAM-1 Fc coated plates)). Settings: 50% human serum, 1 mM MgCl2, 1 hour incubation, CellTiter-Glo luminescence, read-out: a4B7 cell capture assay RMPI8866-MadCAM EC50.
T1 construct: capture of a4b7 integrin expressing cells, RPMI8866; endogenous in cells; host or cells: RPMI8866
T1 sequence (P13612 34-1032): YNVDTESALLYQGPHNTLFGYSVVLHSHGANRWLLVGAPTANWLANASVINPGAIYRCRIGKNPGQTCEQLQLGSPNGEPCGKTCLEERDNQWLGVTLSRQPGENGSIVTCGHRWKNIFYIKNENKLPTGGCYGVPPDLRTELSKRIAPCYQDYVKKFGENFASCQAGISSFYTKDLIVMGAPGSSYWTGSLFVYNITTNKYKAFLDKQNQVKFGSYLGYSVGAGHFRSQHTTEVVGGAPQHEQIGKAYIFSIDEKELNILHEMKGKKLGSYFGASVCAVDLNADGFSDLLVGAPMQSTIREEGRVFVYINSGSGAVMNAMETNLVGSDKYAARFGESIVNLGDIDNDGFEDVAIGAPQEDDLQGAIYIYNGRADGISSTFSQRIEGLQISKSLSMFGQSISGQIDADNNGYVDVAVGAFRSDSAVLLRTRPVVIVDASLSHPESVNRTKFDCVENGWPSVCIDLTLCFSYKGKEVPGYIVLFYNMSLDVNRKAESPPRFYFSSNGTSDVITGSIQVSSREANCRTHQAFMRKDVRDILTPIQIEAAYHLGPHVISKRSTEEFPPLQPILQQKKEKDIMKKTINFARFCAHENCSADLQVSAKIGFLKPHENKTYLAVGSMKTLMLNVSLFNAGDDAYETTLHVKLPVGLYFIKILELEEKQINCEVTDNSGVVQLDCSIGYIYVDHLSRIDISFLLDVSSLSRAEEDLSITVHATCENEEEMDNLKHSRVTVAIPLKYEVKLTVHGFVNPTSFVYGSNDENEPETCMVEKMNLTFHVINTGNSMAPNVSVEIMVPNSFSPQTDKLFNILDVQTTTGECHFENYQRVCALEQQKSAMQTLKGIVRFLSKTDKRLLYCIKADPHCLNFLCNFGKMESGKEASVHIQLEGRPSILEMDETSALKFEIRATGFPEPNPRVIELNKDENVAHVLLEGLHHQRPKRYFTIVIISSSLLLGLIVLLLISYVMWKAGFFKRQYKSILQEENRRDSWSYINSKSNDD
T1 sequence (P26010 20-798): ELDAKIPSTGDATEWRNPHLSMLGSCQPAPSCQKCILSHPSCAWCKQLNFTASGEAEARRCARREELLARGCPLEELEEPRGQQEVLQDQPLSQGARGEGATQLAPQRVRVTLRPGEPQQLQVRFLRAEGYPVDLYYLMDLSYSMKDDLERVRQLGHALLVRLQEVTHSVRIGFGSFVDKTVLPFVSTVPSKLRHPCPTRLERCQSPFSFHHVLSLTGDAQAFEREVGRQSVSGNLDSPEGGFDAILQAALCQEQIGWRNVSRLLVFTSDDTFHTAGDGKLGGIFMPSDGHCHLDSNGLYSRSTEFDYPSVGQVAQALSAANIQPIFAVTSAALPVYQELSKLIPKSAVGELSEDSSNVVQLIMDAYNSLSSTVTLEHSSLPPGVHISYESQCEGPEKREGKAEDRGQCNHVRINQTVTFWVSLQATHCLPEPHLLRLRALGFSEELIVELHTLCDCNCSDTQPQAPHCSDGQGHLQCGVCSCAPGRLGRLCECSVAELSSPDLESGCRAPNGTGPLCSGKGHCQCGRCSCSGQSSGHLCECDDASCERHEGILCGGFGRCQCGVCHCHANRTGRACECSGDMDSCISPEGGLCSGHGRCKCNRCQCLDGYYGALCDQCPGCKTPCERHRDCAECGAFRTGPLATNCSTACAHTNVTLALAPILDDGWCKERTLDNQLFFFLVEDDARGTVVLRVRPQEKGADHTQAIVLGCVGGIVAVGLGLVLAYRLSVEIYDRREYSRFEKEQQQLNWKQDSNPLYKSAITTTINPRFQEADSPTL
Type: cell-based
Experimental: The potency of inhibitors in preventing a4b7 integrin interaction with MadCAM-1 was measured by monitoring the capture of a4b7 integrin expressing cells, RPMI8866, on recombinant human MAdCAM-1 Fc chimera protein-coated plates. The protein was a fusion between human MAdCAM-1 (Met1-Gln333, Accession #AAY82472) and human IgG1 (Pro100-Lys330)] (R&D Systems, Catalog #6056-MC). 96-well plates (Thermofisher, Catalog #136102) were coated with the recombinant protein by dispensing 100 μL (1.0 μg/mL) per well. After a quick spin to settle down the coating solution using a plate centrifuge, plates were incubated overnight at 4° C. in a moisture chamber. On Day 2, the plates were washed with PBS using a Bluecatbio Blue®Washer (GentleSpin wash, 3 cycles, pressure=1, volume 150 uL). Blocking solution (1.0% BSA in PBS, Sigma, Catalog #A7979) was then added at 200 uL/well, and the plates were quickly spun to settle down blocking buffer and incubated in cell culture incubator at 37° C. and 5% CO2 for 1 hour. The plates were then washed with 0.1% BSA in PBS using a Bluecatbio Blue®Washer (GentleSpin wash, 3 cycles, pressure=1, volume 150 uL). RPMI8866 cells suspended in assay medium (1 mM MgCl2 25 mM HEPES and 50% human serum, Sigma, Catalog #H4522) at a density of 1.0×10^6 cells/mL were added at 100 uL/well. Each compound evaluated was prepared as a DMSO stock solution. Test compounds were evaluated with a 9-point serial dilution curve (1000, 333.3, 111.1, 55.6, 27.8, 13.9, 6.9, 2.3, and 0.77 nM)) and were added to the plates using a Tecan D.30e Digita dispenser, the dispensed stock is 100 nL and the final DMSO concentration is 0.1%. Potent compounds were re-evaluated at a new 9-point serial dilution curve (100, 33.3, 11.1, 5.6, 2.8, 1.4, 0.69, 0.23, and 0.08 nM). Each titration curves were performed in triplicate on the same plate, and most of compounds were retested in different dates multiple times. The plates were shaken at 300 rpm on orbital plate shaker for 3 minutes to mix the cells and compounds, quickly spun to settle the cells and solution, and incubated in cell culture incubator at 37° C. and 5% CO2. After 1 hour incubation, the unbound cells were washed away with RPMI1640 medium supplemented with 1 mM MgCl2 and 1% BSA) (wash buffer) using a Bluecatbio Blue®Washer (MagbeadsSpin wash, 1 cycle, pressure 1, volume=150 uL). After wash buffer removal, A mixture of wash buffer/CellTiter-Glo® Reagent (Pormega, catalog #G7573) at 1:1 (V/V) was added at volume of 100 uL to each well. The plates were placed in a chamber at 25° C. and incubated for 30 minutes. Luminescence was recorded using a Envision plate reader 2105 according to CellTiter-Glo protocol.
The mean luminescence signals from negative control wells without MadCAM-1 coating and compound treatment (cells only) was defined as 100% binding inhibition, and the mean luminescence signals from positive control wells with MadCAM-1 coating but without compound treatment (MadCAM-1 and cells only) was defined as 0% binding inhibition. The luminescence signals from other compound treated wells were normalized in percentage scale accordingly. The normalized mean % inhibition data were plotted against logarithmic compound concentration in nanomolar and were fitted with 4-parameter logistic model to obtain IC50 for each compound.

Row | SMILES | EC50
1 | Cc1cc2cc(c1F)[C@H](CC(=O)O)NC(=O)[C@@H](n1cc(CCN(C)C)c(C(F)(F)F)cc1=O)c1cc(ccc1F)Oc1cccc(C)c1-2 (relative stereo) [Example 29, [(14R*,17S)-14-{5-[2-(dimethylamino)ethyl]-2-oxo-4-(trifluoromethyl)pyridin-1-yl}-12,19-difluoro-3,20-dimethyl-15-oxo-8-oxa-16-azatetracyclo[16.3.1.1^{9,13}.0^{2,7}]tricosa-1(22),2(7),3,5,9,11,13(23),18,20-nonaen-17-yl]acetic acid] | 0.07 nM
2 | Cc1cc2cc(c1F)[C@H](CC(=O)O)NC(=O)[C@@H](n1c(=O)c3ccncc3n(C)c1=O)c1cc(ccc1F)Oc1cccc(C)c1-2 (single isomer, unassigned) [Example 69] | 0.38 nM
3 | Cc1cc2cc(c1F)[C@H](CC(=O)O)NC(=O)[C@@H](n1cc(CCN3CC(F)C3)c(C(F)(F)F)cc1=O)c1cc(ccc1F)COc1cccc(C)c1-2 (relative stereo) [Example 36, [(15R*,18S)-13,20-difluoro-15-{5-[2-(3-fluoroazetidin-1-yl)ethyl]-2-oxo-4-(trifluoromethyl)pyridin-1-yl}-3,21-dimethyl-16-oxo-8-oxa-17-azatetracyclo[17.3.1.1^{10,14}.0^{2,7}]tetracosa-1(23),2(7),3,5,10,12,14(24),19,21-nonaen-18-yl]acetic acid] | 5.2 nM
4 | Cc1cc2cc(c1F)[C@H](CC(=O)O)NC(=O)[C@@H](n1cc(CCN3CC(F)C3)c(C(F)(F)F)cc1=O)c1cc(cc(Cl)c1F)Oc1cccc(C)c1-2 [Example 38, [(14S,17S)-11-chloro-12,19-difluoro-14-{5-[2-(3-fluoroazetidin-1-yl)ethyl]-2-oxo-4-(trifluoromethyl)pyridin-1-yl}-3,20-dimethyl-15-oxo-8-oxa-16-azatetracyclo[16.3.1.1^{9,13}.0^{2,7}]tricosa-1(22),2(7),3,5,9,11,13(23),18,20-nonaen-17-yl]acetic acid] | 1.3 nM
5 | COc1cc(C)c2c(c1)Oc1ccc(F)c(c1)[C@H](n1ccc(C(F)(F)F)cc1=O)C(=O)N[C@@H](CC(=O)O)c1cc-2cc(C)c1F (single isomer, unassigned) [Example 80] | 58 nM
6 | O=C(O)C[C@@H]1NC(=O)[C@@H](n2cc(CCN3CC(F)C3)c(C(F)(F)F)cc2=O)c2cccc(c2)Oc2cccc(Cl)c2-c2cc1c(F)c(C(F)(F)F)c2 (relative stereo) [Example 17, [(14R*,17S)-3-chloro-19-fluoro-14-{5-[2-(3-fluoroazetidin-1-yl)ethyl]-2-oxo-4-(trifluoromethyl)pyridin-1-yl}-15-oxo-20-(trifluoromethyl)-8-oxa-16-azatetracyclo[16.3.1.1^{9,13}.0^{2,7}]tricosa-1(22),2(7),3,5,9,11,13(23),18,20-nonaen-17-yl]acetic acid] | 140 nM
7 | COC1CN(c2cc(C)c3c(c2)Oc2ccc(F)c(c2)[C@H](n2cc(CCN4CC(F)C4)c(C(F)(F)F)cc2=O)C(=O)N[C@@H](CC(=O)O)c2cc-3cc(C)c2F)C1 (single isomer, unassigned) [Example 41] | 21 nM
8 | Cc1cccc2c1-c1cc(F)c(F)c(c1)[C@H](CC(=O)O)NC(=O)[C@@H](n1cc(CCN3CC(F)C3)c(C(F)(F)F)cc1=O)c1cc(ccc1F)O2 (relative stereo) [Example 31, [(14R*,17S)-12,19,20-trifluoro-14-{5-[2-(3-fluoroazetidin-1-yl)ethyl]-2-oxo-4-(trifluoromethyl)pyridin-1-yl}-3-methyl-15-oxo-8-oxa-16-azatetracyclo[16.3.1.1^{9,13}.0^{2,7}]tricosa-1(22),2(7),3,5,9,11,13(23),18,20-nonaen-17-yl]acetic acid] | 1.9 nM
9 | Cc1ccc2cc1[C@H](n1cc(CCN3CC(F)C3)c(C(F)(F)F)cc1=O)C(=O)N[C@@H](CC(=O)O)c1cc(cc(C)c1F)-c1c(C)cccc1OC2 (single isomer, unassigned) [Example 74] | 20 nM
10 | Cc1cc2cc(c1F)[C@H](CC(=O)O)NC(=O)[C@@H](n1cc(CCN3CC(F)C3)c(C(F)(F)F)cc1=O)c1cc(cc(Cl)c1F)COc1cccc(C)c1-2 (single isomer, unassigned) [Example 49] | 4.9 nM
11 | Cc1cc2cc(c1F)[C@H](CC(=O)O)NC(=O)[C@@H](n1ccc(C(F)(F)F)c(Cl)c1=O)c1cc(ccc1F)Oc1cccc(C)c1-2 (single isomer, unassigned) [Example 76] | 39 nM
12 | Cc1cccc2c1-c1cc(c(F)c(C(F)(F)F)c1)[C@H](CC(=O)O)NC(=O)[C@@H](n1cc(CCN3CC(F)C3)c(C(F)(F)F)cc1=O)c1cccc(c1)O2 (relative stereo) [Example 6, rel-2-((5S,8S)-14-fluoro-5-(5-(2-(3-fluoroazetidin-1-yl)ethyl)-2-oxo-4-(trifluoromethyl)pyridin-1(2H)-yl)-26-methyl-6-oxo-15-(trifluoromethyl)-3-oxa-7-aza-1,4(1,3),2(1,2)-tribenzenacyclooctaphane-8-yl)acetic acid] | 230 nM
